One may read the MIC as the least concentration at which growth counts as inhibited. High values mean a need for much substance, low ones inhibition by little substance.

This is an account of results in ChEMBL document CHEMBL2424561, “Discovery of new antitubercular agents by combining pyrazoline and benzoxazole pharmacophores: design, synthesis and insights into the binding interactions” (2013).

Values after ≈ are worked out from the molar mass of the structure shown.

This assay relates to Mycobacterium tuberculosis. Kind of assay: Antitubercular activity against multidrug-resistant Mycobacterium tuberculosis after 6 weeks. Format: functional.

In the case of `COc1cc(C2CC(c3ccccc3Br)=NN2C(C)=O)cc2nc(S)oc12` (stereo not given), the MIC is 25 µg/mL (≈ 56 µM).
`COc1cc(C2CC(c3ccc(Cl)cc3Cl)=NN2C(C)=O)cc(N)c1O` (stereo not given) gave a minimum inhibitory concentration (MIC) of 12.5 µg/mL (≈ 31.7 µM). This MIC is about 2-fold lower than that of the molecule before.
The figure for `CC(=O)N1N=C(c2ccccc2Br)CC1c1cc(Cl)c2oc(N)nc2c1` (stereo not given) is 25 µg/mL (≈ 57.6 µM).
Under `CC(=O)N1N=C(c2ccccc2Br)CC1c1ccc2oc(S)nc2c1` (stereo not given) stands 6.25 µg/mL (≈ 15 µM).
The figure for `COc1cc(C2CC(c3ccccc3Br)=NN2C(C)=O)cc2nc(N)oc12` (stereo not given) is 25 µg/mL (≈ 58.2 µM); for `CC(=O)N1N=C(c2ccccc2)CC1c1ccc2oc(S)nc2c1` (stereo not given) it is 25 µg/mL (≈ 74.1 µM).
For the molecule `CC(=O)N1N=C(c2ccccc2)CC1c1ccc(O)c(N)c1` (stereo not given), it took 25 µg/mL (≈ 84.6 µM) to inhibit growth (MIC).
For `COc1cc(C2CC(c3ccccc3)=NN2C(C)=O)cc(N)c1O` (stereo not given), the MIC came to 25 µg/mL (≈ 76.8 µM).
`CC(=O)N1N=C(c2ccccc2Br)CC1c1cc(Cl)c2oc(S)nc2c1` (stereo not given) registered a minimum inhibitory concentration (MIC) of 12.5 µg/mL (≈ 27.7 µM).
Under `CC(=O)N1N=C(c2ccccc2)CC1c1cc(Cl)c2oc(S)nc2c1` (stereo not given) stands 25 µg/mL (≈ 67.2 µM); under `COc1cc(C2CC(c3ccc(F)cc3)=NN2C(C)=O)cc2nc(S)oc12` (stereo not given), 6.25 µg/mL (≈ 16.2 µM).
`CC(=O)N1N=C(c2ccccc2)CC1c1cc(N)c(O)c(Cl)c1` (stereo not given): the MIC was determined as 25 µg/mL (≈ 75.8 µM).
As to `NNC(=O)c1ccncc1` [ISONIAZID], 6.25 µg/mL (≈ 45.6 µM) was the least that counted as inhibitory (MIC).
Under `CC(=O)N1N=C(c2ccccc2)CC1c1cc(Cl)c2oc(N)nc2c1` (stereo not given) stands 25 µg/mL (≈ 70.5 µM); under `COc1cc(C2CC(c3ccccc3)=NN2C(C)=O)cc2nc(N)oc12` (stereo not given), 6.25 µg/mL (≈ 17.8 µM); under `COc1cc(C2CC(c3ccc(Cl)cc3Cl)=NN2C(C)=O)cc2nc(S)oc12` (stereo not given), 12.5 µg/mL (≈ 28.6 µM).
Consider `COc1cc(C2CC(c3ccc(F)cc3)=NN2C(C)=O)cc(N)c1O` (stereo not given), for which the minimal inhibitory concentration (MIC) worked out at 25 µg/mL (≈ 72.8 µM).
On to `COc1cc(C2CC(c3ccc(Cl)cc3Cl)=NN2C(C)=O)cc2nc(N)oc12` (stereo not given), for which the MIC was determined as 12.5 µg/mL (≈ 29.8 µM).
Under `COc1cc(C2CC(c3ccccc3)=NN2C(C)=O)cc2nc(S)oc12` (stereo not given) stands 12.5 µg/mL (≈ 34 µM).
In turn, `CC(=O)N1N=C(c2ccccc2Br)CC1c1ccc(O)c(N)c1` (stereo not given) came in with an MIC of 12.5 µg/mL (≈ 33.4 µM).
On to `COc1cc(C2CC(c3ccccc3Br)=NN2C(C)=O)cc(N)c1O` (stereo not given), for which 3.25 µg/mL (≈ 8.04 µM) was the least that counted as inhibitory (MIC).
Turning to `COc1cc(C2CC(c3ccc(F)cc3)=NN2C(C)=O)cc2nc(N)oc12` (stereo not given), the MIC was 25 µg/mL (≈ 67.9 µM).
On to `CC(=O)N1N=C(c2ccccc2)CC1c1ccc2oc(N)nc2c1` (stereo not given), for which the minimum inhibitory concentration (MIC) was 25 µg/mL (≈ 78 µM).
`CC(=O)N1N=C(c2ccccc2Br)CC1c1ccc2oc(N)nc2c1` (stereo not given): 12.5 µg/mL (≈ 31.3 µM) was the least that counted as inhibitory (MIC).
Under `CC(=O)N1N=C(c2ccccc2Br)CC1c1cc(N)c(O)c(Cl)c1` (stereo not given) stands 25 µg/mL (≈ 61.2 µM).
